Here are results for seven molecules from the supplement of paper PMC11061612.

SMILES strings stand for the structures.

The subject of assay [1] is EMC-BAC-2 (Non-Small Cell Lung Carcinoma). The assay is described as follows: Bliss excess, mean over the matrix (fraction); higher = more synergy. Summed up:
(§1)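 Cell lines grown in DMEM/F12 or RPMI with 10% FBS were plated in 1536-well plates and held 24 hours at 37°C, 5% CO2 before 72 hours of exposure to two-drug dose matrices, with DMSO typically at 0.2%. CellTiter-Glo 2.0 luminescence gave viability, which was converted to inhibition. Vehicle wells were set to 0 and blank wells to 1. Combination Emax is the second-highest inhibition in the matrix, and Bliss excess is the observed combination effect minus the expected EA + EB − EA·EB, where EA and EB are the single-agent effects.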

Another assay concerns GI-1 (Glioblastoma). Described as above. The essentials: as §1
The next assay relates to IMR-5 (Neuroblastoma). The description is as above. The essentials:
as §1

Assay [2] concerns KYSE-150 (Esophageal Squamous Cell Carcinoma). Described as above. The essentials: as §1
Assay [3] concerns KYSE-50 (Esophageal Squamous Cell Carcinoma). Described as above. The essentials: as §1
The subject of the next assay is NB7 (Neuroblastoma). The description is as above. The essentials:
as §1

In assay [4] the test system is NCI-H1573 (Lung Adenocarcinoma). Described as above. The essentials:
as §1

Assay [5] relates to NCI-H2347 (Lung Adenocarcinoma). The description is as above. Summed up: as §1
The test system of assay [6] is NCI-N87 (Gastric Carcinoma). Described as above. The essentials: as §1
The subject of assay [7] is OCUM-1 (Gastric Carcinoma). The description is as above. Summed up:
as §1

In assay [8] the test system is PF-382 (T-Lymphoblastic Leukemia). The assay is described as above. The essentials:
as §1

A further assay deals with RPMI-7951 (Melanoma). The description is as above. The essentials:
as §1

Assay [9] concerns SNU-C1 (Colorectal Carcinoma). Described as above. The essentials:
as §1

Assay [10] relates to ASH-3 (Thyroid Gland Carcinoma). The assay can be described thus: combination Emax (second highest fraction inhibited in the dose matrix, 72 h); higher = more inhibition; extreme values may be limits of the assay. The essentials:
as §1

The subject of a further assay is EW-18 (Ewing's Sarcoma). The description is as above. Summed up: as §1
The subject of assay [11] is KINGS-1 (Low Grade Glioma). Described as above. The essentials:
as §1

Assay [12] relates to LOU-NH91 (Squamous Cell Lung Carcinoma). Described as above. The essentials:
as §1

Assay [13] deals with OCUM-1 (Gastric Carcinoma). The assay is described as above. Summed up: as §1
Assay [14] has as its system SNU-C1 (Colorectal Carcinoma). The description is as above. The essentials: as §1
The test system of assay [15] is VMRC-LCD (Lung Adenocarcinoma). The description is as above. Summed up:
as §1
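For Bliss excess, mean over the matrix in this document: after 72 h of two-drug dosing.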

On to `Cn1cnc2c(F)c(Nc3ccc(Br)cc3Cl)c(C(=O)NOCCO)cc21` [Selumetinib] + CCN(CCO)CCCOc1ccc2c(Nc3cc(CC(=O)Nc4cccc(F)c4)[nH]n3)ncnc2c1 [AZD2811] (first compound max 10 µM, 7x7, partner max 1 µM), for which the Bliss excess is 0.0094 in assay [1]; -0.104 in the assay on GI-1 (Glioblastoma); -0.0062 in the assay on IMR-5 (Neuroblastoma); 0.0295 in assay [2]; 0.005 in assay [3]; 0.0229 with NB7 (Neuroblastoma). Also, the Bliss excess was -0.0318 in assay [4]; 0.0258 in [5]; -0.0173 in assay [6]; 0.0153 in [7]; 0.111 in assay [8]; 0.0191 in the assay with RPMI-7951 (Melanoma). In assay [9], the Bliss excess is -0.0494. Besides, the “combination Emax” value was found to be 0.391 in assay [10]; 0.7 with EW-18 (Ewing's Sarcoma); 0.22 in assay [11]; 0.372 in assay [12]; 0.93 in assay [13]; 0.723 in [14]. For the same molecule, the “combination Emax” value in assay [15] amounted to 0.585.
Take `Cc1cc2ncnn2cc1Nc1ncc2c(n1)n(C1CCOCC1)c(=O)n2C` [AZD7648] + CN(C)CCCOc1ccc(-c2ccc3ncc4c(c3c2)n(C2CCOCC2)c(=O)n4C)cn1 [AZD0156] (first compound max 10 µM, 7x7, partner max 1 µM): the Bliss excess in assay [1] worked out at 0.0137; in the assay with GI-1 (Glioblastoma), 0.0472; with IMR-5 (Neuroblastoma) it was 0.009; in assay [2] it was 0.0054; in assay [3], 0.0078; with NB7 (Neuroblastoma) it was 0.0303. Also, the Bliss excess in assay [4] was -0.0085; in assay [5], 0.0159; in assay [6], 0.0452; in [7], 0.0016; in assay [8] it was 0.0685; with RPMI-7951 (Melanoma), -0.0164. Further, in assay [9], the Bliss excess is -0.0423. For the same molecule, the “combination Emax” value in [10] worked out at 0.332; in the assay on EW-18 (Ewing's Sarcoma), 0.391; in assay [11] it was 0.3; in [12], 0.279; in [13], 0.211; in assay [14], 0.316. In addition, in [15], the “combination Emax” value was determined as 0.253.
For the molecule `Cc1cc2ncnn2cc1Nc1ncc2c(n1)n(C1CCOCC1)c(=O)n2C` [AZD7648] + O=C(c1cc(Cc2n[nH]c(=O)c3ccccc23)ccc1F)N1CCN(C(=O)C2CC2)CC1 [Olaparib] (first compound max 10 µM, 7x7, partner max 10 µM), the Bliss excess is -0.0399 in assay [1]; -0.0013 in the assay with GI-1 (Glioblastoma); 0.0328 in the assay with IMR-5 (Neuroblastoma); -0.0351 in [2]; -0.0246 in [3]; -0.0291 with NB7 (Neuroblastoma). Further, the Bliss excess in assay [4] was -0.0205; in [5], -0.0144; in assay [6], -0.0262; in [7] it was -0.0571; in assay [8], 0.0443; with RPMI-7951 (Melanoma), 0.0044. Besides, the Bliss excess in assay [9] is -0.0619. For the same molecule, the “combination Emax” value in assay [10] was 0.321; in the assay on EW-18 (Ewing's Sarcoma), 0.369; in assay [11], 0.189; in [12], 0.186; in assay [13] it was 0.186; in assay [14], 0.158. The “combination Emax” value in assay [15] amounted to 0.0108.
On to `C[C@@H](c1ccc2nccn2c1)n1nnc2ncc(-c3cnn(C)c3)nc21` [Savolitinib] + CC1(C)CCC(CN2CCN(c3ccc(C(=O)NS(=O)(=O)c4ccc(NCC5CCOCC5)c([N+](=O)[O-])c4)c(Oc4cnc5[nH]ccc5c4)c3)CC2)=C(c2ccc(Cl)cc2)C1 [Venetoclax] (first compound max 1 µM, 7x7, partner max 1 µM), for which the Bliss excess in [1] is -0.0816; in the assay with GI-1 (Glioblastoma), 0.0079; with IMR-5 (Neuroblastoma) it was -0.0158; in assay [2] it was -0.0686; in assay [3] it was -0.0636; with NB7 (Neuroblastoma), -0.0221. In addition, the Bliss excess in [4] was -0.0802; in [5] it was -0.0848; in assay [6] it was -0.0341; in assay [7], -0.0368; in assay [8] it was -0.0402; with RPMI-7951 (Melanoma), -0.0432. The Bliss excess in [9] was -0.0363. Also, the “combination Emax” value in assay [10] was 0.16; in the assay with EW-18 (Ewing's Sarcoma), 0.229; in [11], 0.334; in assay [12], 0.135; in assay [13], 0.187; in assay [14], 0.133. Further, in assay [15], the “combination Emax” value is 0.128.
Take `COc1cccc(OCCCN)c1-c1cc(Nc2cnc(C#N)cn2)n[nH]1` [Prexasertib] + CCc1c2c(nc3ccc(O)cc13)-c1cc3c(c(=O)n1C2)COC(=O)[C@]3(O)CC [SN-38] (first compound max 1 µM, 7x7, partner max 0.3 µM): the Bliss excess in assay [1] is -0.0767; in the assay with GI-1 (Glioblastoma) it was 0.0188; in the assay with IMR-5 (Neuroblastoma), -0.011; in assay [2], 0.135; in assay [3], 0.0461; with NB7 (Neuroblastoma) it was 0.0222. Besides, the Bliss excess was 0.0357 in assay [4]; 0.0217 in assay [5]; -0.0787 in assay [6]; -0.101 in [7]; -0.0583 in assay [8]; -0.0265 in the assay on RPMI-7951 (Melanoma). The Bliss excess in assay [9] is -0.0179. Also, the “combination Emax” value is 0.989 in assay [10]; 0.77 in the assay with EW-18 (Ewing's Sarcoma); 0.691 in assay [11]; 0.936 in assay [12]; 0.787 in assay [13]; 0.745 in assay [14]. Besides, the “combination Emax” value in assay [15] was determined as 0.769.
For `CC(=O)c1c(C)c2cnc(Nc3ccc(N4CCNCC4)cn3)nc2n(C2CCCC2)c1=O` [Palbociclib] + Cc1c2c(nn1C)CSCc1cc(n(C)n1)CSc1cc(c3ccccc3c1)OCCCc1c(C(=O)O)n(C)c3c-2c(Cl)ccc13 [AZD5991] (first compound max 10 µM, 7x7, partner max 1 µM), the Bliss excess in assay [1] was -0.0991; with GI-1 (Glioblastoma), -0.0123; in the assay with IMR-5 (Neuroblastoma) it was 0.0155; in assay [2], -0.0278; in assay [3] it was -0.0658; in the assay on NB7 (Neuroblastoma), 0.054. For the same molecule, the Bliss excess in assay [4] was -0.0539; in [5], -0.0677; in [6], -0.0373; in [7] it was -0.0315; in [8] it was -0.0193; in the assay with RPMI-7951 (Melanoma), -0.0742. Also, the Bliss excess in [9] was -0.0562. In addition, the “combination Emax” value was found to be 0.398 in assay [10]; 0.899 in the assay on EW-18 (Ewing's Sarcoma); 0.258 in assay [11]; 0.35 in assay [12]; 0.285 in [13]; 0.142 in [14]. For the same molecule, the “combination Emax” value in assay [15] amounted to 0.337.
Regarding `CC1(C)CCC(CN2CCN(c3ccc(C(=O)NS(=O)(=O)c4ccc(NCC5CCOCC5)c([N+](=O)[O-])c4)c(Oc4cnc5[nH]ccc5c4)c3)CC2)=C(c2ccc(Cl)cc2)C1` [Venetoclax] + COc1cc(Nc2ncc3c(n2)-c2ccc(Cl)cc2C(c2c(F)cccc2OC)=NC3)ccc1C(=O)O [Alisertib] (first compound max 1 µM, 7x7, partner max 10 µM), the Bliss excess in assay [1] was -0.0033; in the assay with GI-1 (Glioblastoma) it was 0.0787; in the assay with IMR-5 (Neuroblastoma) it was 0.0402; in assay [2], -0.0364; in assay [3], -0.0101; with NB7 (Neuroblastoma) it was -0.0193. Further, the Bliss excess in assay [4] was -0.0266; in [5], -0.0487; in assay [6], -0.0675; in assay [7] it was 0.0489; in [8], 0.0444; in the assay on RPMI-7951 (Melanoma) it was 0.0107. Moreover, the Bliss excess in [9] is -0.0323. Also, the “combination Emax” value was determined as 0.476 in [10]; 0.736 in the assay on EW-18 (Ewing's Sarcoma); 0.379 in assay [11]; 0.479 in assay [12]; 0.51 in [13]; 0.251 in [14]. The “combination Emax” value in [15] was 0.619.
